From PubChem BioAssay (NCI)
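96-well plates; 48 h exposure; 5 concentrations. Endpoints by linear interpolation between flanking doses. Not reached: highest tested concentration assigned. TGI denotes the concentration required for complete inhibition of growth.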

Columns and labels:
Test in all cases: NCI tumour cell line growth inhibition, 48 h
[1] = test system: U251 CNS
[2] = test system: NCI-H460 lung
[3] = test system: NCI-H23 lung
[4] = test system: LOX IMVI melanoma
[5] = test system: KM12 colon
[6] = test system: NCI-H226 lung
[7] = test system: SN12C renal
[8] = test system: SF-268 CNS
[9] = test system: HL-60(TB) leukemia
[10] = test system: HT29 colon
[11] = test system: SR leukemia
[12] = test system: OVCAR-3 ovarian
[13] = test system: EKVX NSCLC
[14] = test system: HOP-92 NSCLC
[15] = test system: SK-MEL-28 melanoma
[16] = test system: OVCAR-8 ovarian
[17] = test system: OVCAR-4 ovarian
[18] = test system: ACHN renal
[19] = test system: UO-31 renal
[20] = test system: RXF 393 renal
[21] = test system: XF 498 CNS
[22] = test system: HOP-18 NSCLC
[23] = test system: SK-MEL-2 melanoma
[24] = test system: IGROV1 ovarian
[25] = test system: OVCAR-5 ovarian
[26] = test system: SW-620 colon
[27] = test system: MALME-3M melanoma
[28] = test system: A549 NSCLC
[29] = test system: CCRF-CEM leukemia
[30] = test system: SF-295 CNS
[31] = test system: SK-OV-3 ovarian
[32] = test system: MOLT-4 leukemia
[33] = test system: SNB-19 CNS
[34] = test system: 786-0 renal
[35] = test system: SNB-78 CNS
[36] = test system: DLD-1 colon
[37] = test system: M19-MEL melanoma
[38] = test system: UACC-62 melanoma
[39] = test system: UACC-257 melanoma
[40] = test system: HCT-15 colon
[41] = test system: NCI-H522 lung
[42] = test system: M14 melanoma
[43] = test system: SK-MEL-5 melanoma
[44] = test system: SNB-75 CNS
[45] = test system: RXF-631 renal
[46] = test system: HOP-62 NSCLC
[47] = test system: LXFL 529 NSCLC
[48] = test system: CAKI-1 renal
[49] = test system: TK-10 renal
[50] = test system: COLO 205 colon
[51] = test system: SF-539 CNS
[52] = test system: HCT-116 colon
[53] = test system: DMS 273 small cell lung
[54] = test system: RPMI-8226 leukemia
[55] = test system: KM20L2 colon
[56] = test system: A498 renal
[57] = test system: HCC-2998 colon
[58] = test system: K-562 leukemia
[59] = test system: DMS 114 small cell lung

[O-][n+]1c2cc(CN3CCOCC3)c(CN3CCOCC3)cc2[n+]([O-])c2c(O)cccc21
TGI [1]: 7.09 µM | TGI [2]: 4.5 µM | TGI [3]: 8.88 µM | TGI [4]: 16.3 µM | TGI [5]: 8.55 µM | TGI [6]: 30.9 µM | TGI [7]: 13 µM | TGI [8]: 3.6 µM | TGI [9]: 10.9 µM | TGI [10]: 9.18 µM | TGI [11]: 0.701 µM | TGI [12]: 13 µM | TGI [13]: 20.2 µM | TGI [14]: 10.4 µM | TGI [15]: 32.5 µM | TGI [16]: 7.12 µM | TGI [17]: 9.81 µM | TGI [18]: 26.3 µM | TGI [19]: 10.4 µM | TGI [20]: 5.11 µM | TGI [21]: 7.42 µM | TGI [22]: 18.6 µM | TGI [23]: 12.1 µM | TGI [24]: 13 µM | TGI [25]: 15.2 µM | TGI [26]: 7.16 µM | TGI [27]: 25.3 µM | TGI [28]: > 25.3 µM | TGI [29]: 4.02 µM | TGI [30]: 2160 nM | TGI [31]: 13.5 µM | TGI [32]: 3.05 µM | TGI [33]: > 40.8 µM | TGI [34]: 6.03 µM | TGI [35]: 21.9 µM | TGI [36]: 6.8 µM | TGI [37]: 8.83 µM | TGI [38]: 12.9 µM | TGI [39]: 16.3 µM | TGI [40]: 8.14 µM | TGI [41]: 6.23 µM | TGI [42]: 13.2 µM | TGI [43]: > 37.9 µM | TGI [44]: 21.3 µM | TGI [45]: > 55.9 µM | TGI [46]: 15.8 µM | TGI [47]: 7.73 µM | TGI [48]: > 23.9 µM | TGI [49]: > 42 µM | TGI [50]: 11.1 µM | TGI [51]: 2820 nM | TGI [52]: 6.05 µM | TGI [53]: 15 µM | TGI [54]: 12.2 µM | TGI [55]: 15.4 µM | TGI [56]: 31.5 µM

O=C1/C(=C\c2ccccc2)c2ccccc2N1/N=C\c1ccccc1
TGI [1]: > 100 µM | TGI [2]: > 100 µM | TGI [3]: > 100 µM | TGI [4]: > 100 µM | TGI [5]: > 100 µM | TGI [6]: > 100 µM | TGI [7]: > 100 µM | TGI [8]: > 100 µM | TGI [57]: > 100 µM | TGI [10]: > 100 µM | TGI [12]: > 100 µM | TGI [13]: > 100 µM | TGI [14]: > 100 µM | TGI [15]: > 100 µM | TGI [16]: > 100 µM | TGI [17]: > 100 µM | TGI [58]: > 100 µM | TGI [18]: > 100 µM | TGI [19]: > 100 µM | TGI [21]: > 100 µM | TGI [22]: > 100 µM | TGI [23]: > 100 µM | TGI [24]: > 100 µM | TGI [25]: > 100 µM | TGI [26]: > 100 µM | TGI [27]: > 100 µM | TGI [28]: > 100 µM | TGI [29]: > 100 µM | TGI [30]: > 100000 nM | TGI [31]: > 100 µM | TGI [32]: > 100 µM | TGI [33]: > 100 µM | TGI [34]: > 100 µM | TGI [35]: > 100 µM | TGI [36]: > 100 µM | TGI [37]: > 100 µM | TGI [38]: > 100 µM | TGI [39]: > 100 µM | TGI [40]: > 100 µM | TGI [42]: > 100 µM | TGI [43]: > 100 µM | TGI [44]: > 100 µM | TGI [59]: > 100 µM | TGI [46]: > 100 µM | TGI [48]: > 100 µM | TGI [49]: > 100 µM | TGI [50]: > 100 µM | TGI [51]: > 100000 nM | TGI [52]: > 100 µM | TGI [53]: > 100 µM | TGI [54]: > 100 µM | TGI [55]: > 100 µM | TGI [56]: > 100 µM

COc1cc(/C=C\c2ccc(Cl)cc2)cc(OC)c1OC
TGI [1]: > 100 µM | TGI [2]: > 100 µM | TGI [3]: 1.12 µM | TGI [4]: > 100 µM | TGI [5]: > 100 µM | TGI [6]: 6.84 µM | TGI [7]: > 100 µM | TGI [8]: > 100 µM | TGI [9]: 2.45 µM | TGI [57]: 32.7 µM | TGI [10]: 10.2 µM | TGI [11]: 16.7 µM | TGI [12]: 0.437 µM | TGI [13]: > 87.5 µM | TGI [15]: > 67.5 µM | TGI [16]: > 100 µM | TGI [17]: > 100 µM | TGI [58]: > 44.2 µM | TGI [18]: > 100 µM | TGI [19]: > 43.6 µM | TGI [20]: > 100 µM | TGI [21]: 19.1 µM | TGI [22]: > 100 µM | TGI [23]: 16.3 µM | TGI [24]: > 100 µM | TGI [25]: > 31.6 µM | TGI [26]: > 100 µM | TGI [27]: 57.3 µM | TGI [28]: > 100 µM | TGI [29]: 3.96 µM | TGI [30]: 218 nM | TGI [31]: 89.3 µM | TGI [32]: 6.87 µM | TGI [33]: > 100 µM | TGI [34]: 20.3 µM | TGI [36]: > 100 µM | TGI [37]: > 100 µM | TGI [38]: > 100 µM | TGI [39]: 39.2 µM | TGI [40]: 14.4 µM | TGI [41]: 0.355 µM | TGI [42]: 22.7 µM | TGI [43]: 12.8 µM | TGI [59]: > 91.8 µM | TGI [45]: > 100 µM | TGI [46]: > 100 µM | TGI [47]: > 95.1 µM | TGI [48]: 47.4 µM | TGI [49]: > 100 µM | TGI [50]: > 36.3 µM | TGI [51]: 564 nM | TGI [52]: > 100 µM | TGI [53]: 19.4 µM | TGI [54]: 46.4 µM | TGI [55]: 0.372 µM | TGI [56]: 1.25 µM

O=C(O)CN=c1c2ccccc2n(O)c2ccccc12
TGI [1]: > 100 µM | TGI [2]: > 100 µM | TGI [3]: > 100 µM | TGI [4]: > 100 µM | TGI [5]: > 100 µM | TGI [6]: > 100 µM | TGI [7]: > 100 µM | TGI [8]: > 100 µM | TGI [9]: 43 µM | TGI [57]: > 100 µM | TGI [10]: > 100 µM | TGI [12]: > 100 µM | TGI [13]: > 100 µM | TGI [15]: > 100 µM | TGI [16]: > 100 µM | TGI [17]: > 100 µM | TGI [58]: 26.9 µM | TGI [18]: > 100 µM | TGI [19]: > 100 µM | TGI [22]: > 100 µM | TGI [23]: > 100 µM | TGI [24]: > 100 µM | TGI [25]: > 100 µM | TGI [26]: > 100 µM | TGI [27]: > 100 µM | TGI [28]: > 100 µM | TGI [29]: 53.6 µM | TGI [30]: > 100000 nM | TGI [31]: > 100 µM | TGI [32]: > 100 µM | TGI [33]: > 100 µM | TGI [34]: > 100 µM | TGI [35]: > 100 µM | TGI [36]: > 100 µM | TGI [37]: > 100 µM | TGI [38]: > 100 µM | TGI [39]: > 100 µM | TGI [40]: > 100 µM | TGI [41]: > 100 µM | TGI [42]: > 100 µM | TGI [43]: > 100 µM | TGI [44]: > 100 µM | TGI [59]: > 100 µM | TGI [45]: > 100 µM | TGI [46]: > 100 µM | TGI [47]: > 100 µM | TGI [48]: > 100 µM | TGI [49]: > 100 µM | TGI [50]: > 100 µM | TGI [52]: > 100 µM | TGI [53]: > 100 µM | TGI [54]: > 100 µM | TGI [55]: > 100 µM | TGI [56]: > 100 µM
